Measurements as given in EPA's ToxValDB 9.5.

Columns and labels:
[1] = tested on: Rattus norvegicus; settings: subchronic; duration: 13 weeks; oral; gavage; M/F; Fischer 344; Deaths + Clinical Observation: Tremors Convulsions + Body Weight Changes: decrease + Absolute Organ Weight: Liver increase + Relative Organ …
[2] = tested on: Homo sapiens; settings: clinical, oral
[3] = tested on: Mus musculus; settings: chronic; duration: 78 weeks; oral; diet; F; B6C3F1
[4] = tested on: Rattus norvegicus; settings: repeat dose other; oral
[5] = tested on: Tytonidae; settings: oral
[6] = tested on: Rattus norvegicus; settings: chronic; duration: 2 years; oral; diet; M/F; Carworth Farms E; hepatic
[7] = tested on: Monkey; settings: oral, diet
[8] = tested on: Rattus norvegicus; settings: chronic, duration: 2 years, oral, diet, M/F
[9] = tested on: Rattus norvegicus; settings: chronic, duration: 2 years, oral, diet
[10] = tested on: Phasianus colchicus; settings: oral
[11] = tested on: Cavia porcellus; settings: subchronic; duration: 90 days; oral; diet; M/F; Guinea Pig; lymphatic
[12] = tested on: Mus musculus; settings: acute; duration: 1 days; oral; gavage; F; B6C3F1; immunological
[13] = tested on: Sus scrofa; settings: short-term; duration: 19 days; oral; diet; F; Swedish Landrace/Large Yorkshire cross; reproductive
[14] = tested on: Oryctolagus sp.; settings: reproduction developmental; duration: 12 days; oral; gavage; F; New Zealand; body weight
[15] = tested on: Canidae; settings: chronic, duration: 1 years, oral, diet, Dog Other, Cardiac toxicity and moderate-to-severe dilation of the right atrium

**Q.** For Oc1ccc(O)cc1 [Hydroquinone], which NOEL [1] is on record?
**A.** 25 mg/kg-day

**Q.** What about the NOAEL ([2]; duration: 5 months, M/F, Hematologic, Urinary) of the same compound?
**A.** 4.3 mg/kg-day

**Q.** For [Cl-].[Rb+] [Rubidium chloride (RbCl)], which LOAEL ([2]; duration: 3 weeks, capsule, F) is on record?
**A.** 5.3 mg/kg-day

**Q.** With Cc1ccc([N+](=O)[O-])cc1N [C.I. Azoic Diazo Component 12] as the compound, how does the LOAEL [3] read?
**A.** 207 mg/kg-day

**Q.** Which results are given for ClC1=C(Cl)[C@]2(Cl)[C@@H]3[C@@H]4C[C@@H]([C@H]5O[C@@H]45)[C@@H]3[C@@]1(Cl)C2(Cl)Cl [Dieldrin]?
**A.** LOAEL [4]: 0.2 mg/kg-day; NOAEL [4]: 0.02 mg/kg-day; NOAEL [5]: 0.077 mg/kg-day; NOAEL [6]: 0.005 mg/kg-day; NOAEL ([7]; subchronic, duration: 55 days, M, Squirrel Monkey, neurological): 0.01 mg/kg-day; LOAEL ([8]; liver lesions): 0.05 mg/kg-day; NOAEL ([8]; liver lesions): 0.005 mg/kg-day; NOAEL ([9]; Liver: Lesions): 0.005 mg/kg-day

**Q.** How did the LOAEL [4] turn out when Clc1cc2c(cc1Cl)Oc1cc(Cl)c(Cl)cc1O2 [2,3,7,8-Tetrachlorodibenzo-p-dioxin] was run?
**A.** 1e-05 mg/kg-day

**Q.** And the NOAEL [4]?
**A.** 1e-06 mg/kg-day

**Q.** And the LOAEL [10]?
**A.** 0.00014 mg/kg-day

**Q.** What about the NOAEL [10] of the same compound?
**A.** 1.4e-05 mg/kg-day

**Q.** What about the NOAEL [11] of the same compound?
**A.** 7e-07 mg/kg-day

**Q.** And the NOAEL [12]?
**A.** 5e-06 mg/kg-day

**Q.** And the LOAEL ([7]; developmental, duration: 16 months, M/F, Rhesus, developmental)?
**A.** 1.2e-07 mg/kg-day

**Q.** How did the LOAEL [13] turn out when CCNc1nc(Cl)nc(NC(C)C)n1 [Atrazine] was run?
**A.** 1 mg/kg-day

**Q.** And the NOAEL [14]?
**A.** 1 mg/kg-day

**Q.** What about the LOAEL ([8]; reduced body weight gain) of the same compound?
**A.** 25 mg/kg-day

**Q.** What about the NOAEL ([8]; reduced body weight gain) of the same compound?
**A.** 3.5 mg/kg-day

**Q.** What about the LOAEL ([15]; F) of the same compound?
**A.** 33.8 mg/kg-day

**Q.** What about the NOAEL ([15]; M/F) of the same compound?
**A.** 4.97 mg/kg-day

**Q.** What about the LOAEL ([15]; M) of the same compound?
**A.** 33.6 mg/kg-day

**Q.** And the NOEL ([9]; Whole body: Decreased weight gain)?
**A.** 3.5 mg/kg-day
